Active and inactive are the calls of the source. No cut-off for these calls is given here.
Legend:
[1] = system: A549; experiment: Antiangiogenic activity in human A549 cells xenografted in BALB/c nu/nu mouse assessed as disruption of tumor vasculature at 100 mg/kg, ip after 16 hrs by Hoechst 33342 staining-based Zeiss microscopic analysis relative to control; type: functional; details: route intraperitoneal
[2] = system: HUVEC; experiment: Antiproliferative activity against activated HUVECs after 48 hrs by CCK-8 assay; type: functional, cell-based; details: Homo sapiens
[3] = system: HUVEC; experiment: Antiproliferative activity against quesicent HUVECs after 48 hrs by CCK-8 assay; type: cell-based; details: Homo sapiens
[4] = system: HUVEC; experiment: Selectivity ratio of IC50 for quesicent HUVECs to IC50 for activated HUVECs; type: functional, Homo sapiens
[5] = system: A549; experiment: Antimitotic activity in human A549 cells assessed as disruption of microtubule organization at 0.01 uM after 16 hrs by DAPI staining-based Zeiss microscopic analysis relative to control; type: functional, cell-based
[6] = system: A549; experiment: Cytotoxicity against human A549 cells after 72 hrs by CCK-8 assay; type: functional, cell-based; details: A549, 72 h
[7] = system: HeLa; experiment: Cytotoxicity against human HeLa cells after 72 hrs by CCK-8 assay; type: functional, cell-based
[8] = system: HT-1080; experiment: Cytotoxicity against human HT1080 cells after 72 hrs by CCK-8 assay; type: functional, cell-based; details: HT-1080, 72 h
[9] = system: HepG2; experiment: Cytotoxicity against human HepG2 cells after 72 hrs by CCK-8 assay; type: functional, cell-based; details: HepG2, 72 h
[10] = system: A549; experiment: Cell cycle arrest in human A549 cells assessed as accumulation at G2/M phase at 0.1 uM after 24 hrs by propidium iodide staining-based FACS flow cytometric analysis (reference value: 8.52%); type: functional
[11] = system: A549; experiment: Cell cycle arrest in human A549 cells assessed as accumulation at S phase at 0.1 uM after 24 hrs by propidium iodide staining-based FACS flow cytometric analysis (reference value: 32.56%); type: functional
[12] = system: HUVEC; experiment: Antiangiogenic activity in activated HUVECs assessed as inhibition of capillary tube formation at 0.1 uM after 22 hrs by light microscopic analysis; type: functional, cell-based; details: Homo sapiens
[13] = system: HUVEC; experiment: Antiangiogenic activity in quesicent HUVECs assessed as disruption of preformed capillaries at 0.1 uM after 4 hrs by light microscopic analysis (reference value: 11%); type: cell-based; details: human
[14] = system: HUVEC; experiment: Antiangiogenic activity in quesicent HUVECs assessed as disruption of preformed capillaries at 1 uM after 4 hrs by light microscopic analysis relative to control; type: cell-based; details: human
[15] = system: A549; experiment: Antimitotic activity in human A549 cells assessed as disruption of microtubule organization at 0.05 uM after 16 hrs by DAPI staining-based Zeiss microscopic analysis relative to control; type: functional, cell-based
[16] = biological target: Tubulin (Homo sapiens) (UniProt P68371+Q9H4B7+P0DPH7+P68366+Q13509+Q71U36+P04350+Q3ZCM7+P07437+P68363+Q9BQE3+Q6PEY2+Q13885+Q9BVA1+Q9BUF5); experiment: Inhibition of tubulin polymerization in human A549 cells at 0.1 uM after 6 hrs by Western blotting analysis; type: cell-based
[17] = system: A549; experiment: Cell cycle arrest in human A549 cells assessed as accumulation at G1 phase at 0.1 uM after 24 hrs by propidium iodide staining-based FACS flow cytometric analysis (reference value: 53.57%); type: functional
[18] = system: A549; experiment: Antimitotic activity in human A549 cells assessed as disruption of microtubule organization at 0.1 uM after 16 hrs by DAPI staining-based Zeiss microscopic analysis relative to control; type: functional, cell-based

COc1ccc(/C=C\c2cc(OC)c(OC)c(OC)c2)cc1O [COMBRETASTATIN A4]
Activity [1]: 72%
IC50 [2]: 3.34 nM
IC50 ([3]; read-out: IC50): 8.9 nM
Ratio IC50 [4]: 2.66
Activity [5]: Active
IC50 [6]: 3.64 nM

COc1ccc(Cc2c[nH]c3c(OC)c(OC)c(OC)cc23)cc1
IC50 [6]: 2990 nM

COc1ccc(C(=O)c2cn(C(C)=O)c3c(OC)c(OC)c(OC)cc23)cc1
IC50 [6]: 5270 nM

COc1cc2c(C(=O)c3ccc(C)cc3)c[nH]c2c(OC)c1OC
IC50 [6]: > 10000 nM

COc1ccc(C(=O)c2cn(C)c3c(OC)c(OC)c(OC)cc23)cc1
IC50 [6]: 482 nM

COc1ccc(C(=O)c2c[nH]c3c(OC)c(OC)c(OC)cc23)cc1F
IC50 [6]: > 10000 nM

COc1cc(Cc2c[nH]c3c(OC)c(OC)c(OC)cc23)cc(OC)c1OC
IC50 [6]: > 10000 nM

COc1ccc(Cc2cn(C)c3c(OC)c(OC)c(OC)cc23)cc1F
IC50 [6]: 144 nM

COc1ccc(C(=O)c2c(C)[nH]c3c(OC)c(OC)c(OC)cc23)cc1O
IC50 [6]: 2620 nM

COc1ccc(C(=O)c2c[nH]c3c(OC)c(OC)c(OC)cc23)cc1
IC50 [6]: 8290 nM

COc1ccc(Cn2ccc3cc(OC)c(OC)c(OC)c32)cc1O
IC50 [6]: 3190 nM

COc1cccc(C(=O)c2c[nH]c3c(OC)c(OC)c(OC)cc23)c1
IC50 [6]: > 10000 nM

COc1ccc(C(=O)c2c[nH]c3c(OC)c(OC)c(OC)cc23)cc1Cl
IC50 [6]: > 10000 nM

COc1ccc(C(=O)c2cn(S(=O)(=O)c3ccccc3)c3c(OC)c(OC)c(OC)cc23)cc1
IC50 [6]: > 10000 nM

COc1ccc(C(=O)c2c(C)n(C)c3c(OC)c(OC)c(OC)cc23)cc1O
IC50 [2]: 43.7 nM
IC50 ([3]; read-out: IC50): 161 nM
Ratio IC50 [4]: 3.68
IC50 [6]: 108 nM
IC50 [7]: 632 nM
IC50 [8]: 574 nM
IC50 [9]: 91.6 nM

COc1ccc(C(=O)c2c[nH]c3c(OC)c(OC)c(OC)cc23)cc1I
IC50 [6]: > 10000 nM

COc1ccc(C(=O)c2c[nH]c3c(OC)c(OC)c(OC)cc23)cc1O
IC50 [2]: 327 nM
IC50 ([3]; read-out: IC50): 2980 nM
Ratio IC50 [4]: 9.1
IC50 [6]: 166 nM

COc1ccc(C(=O)c2cn(C)c3c(OC)c(OC)c(OC)cc23)cc1O
Activity [1]: 68%
Activity [10]: 78.85%
Activity [11]: 14.34%
IC50 [2]: 25.3 nM
IC50 ([3]; read-out: IC50): 5240 nM
Ratio IC50 [4]: 207
inhibition [12]: Active
Activity [13]: 13%
Activity [14]: 49%
Activity [15]: Active
inhibition [16]: 27%
Activity [17]: 5.07%
IC50 [6]: 28.3 nM
IC50 [7]: 125 nM
IC50 [8]: 26.3 nM
IC50 [9]: 44.5 nM

COc1ccc(Cn2ccc3cc(OC)c(OC)c(OC)c32)cc1
IC50 [6]: 3090 nM

COc1ccc(C(=O)c2cn(C)c3c(OC)c(OC)c(OC)cc23)cc1F
IC50 [2]: 96.4 nM
IC50 ([3]; read-out: IC50): 151 nM
Ratio IC50 [4]: 1.56
IC50 [6]: 146 nM

COc1ccc(Cc2c[nH]c3c(OC)c(OC)c(OC)cc23)cc1O
IC50 [2]: 228 nM
IC50 ([3]; read-out: IC50): 2450 nM
Ratio IC50 [4]: 10.8
IC50 [6]: 118 nM
IC50 [7]: 149 nM
IC50 [8]: 118 nM
IC50 [9]: 72.2 nM

COc1ccc(Cc2cn(C)c3c(OC)c(OC)c(OC)cc23)cc1O
Activity [10]: 80.48%
Activity [11]: 14.7%
IC50 [2]: 8.9 nM
IC50 ([3]; read-out: IC50): 6300 nM
inhibition [12]: Active
Activity [13]: 10%
Activity [14]: 51%
Activity [18]: Active
inhibition [16]: 31%
Activity [17]: 3.9%
IC50 [6]: 71.7 nM
IC50 [7]: 40.7 nM
IC50 [8]: 42.2 nM
IC50 [9]: 45.5 nM

COc1ccc(Cc2c[nH]c3c(OC)c(OC)c(OC)cc23)cc1F
IC50 [6]: 387 nM

COc1cc(C(=O)c2c[nH]c3c(OC)c(OC)c(OC)cc23)cc(OC)c1OC
IC50 [6]: > 10000 nM

COc1ccc(C(=O)n2ccc3cc(OC)c(OC)c(OC)c32)cc1
IC50 [6]: > 10000 nM

COc1ccccc1C(=O)c1c[nH]c2c(OC)c(OC)c(OC)cc12
IC50 [6]: > 10000 nM

COc1cc2c(c(OC)c1OC)-c1ccc(OC)c(=O)cc1[C@@H](NC(C)=O)CC2 [COLCHICINE]
IC50 [2]: 8.91 nM
IC50 [3]: 7.6 nM
inhibition [12]: Active
Activity [13]: 56%
IC50 [7]: 37.4 nM
IC50 [8]: 15.4 nM
IC50 [9]: 46.7 nM

COc1ccc(C(=O)n2ccc3cc(OC)c(OC)c(OC)c32)cc1O
IC50 [6]: > 10000 nM

Source: ChEMBL document CHEMBL2331442, “Synthesis and structure-activity relationships of N-methyl-5,6,7-trimethoxylindoles as novel antimitotic and vascular disrupting agents” (J Med Chem, 2013)
